This is an account of results in patent US20130149701A1, “METHODS OF IDENTIFYING THERAPEUTIC AGENTS FOR TREATING PERSISTER AND BACTERIAL INFECTION” (priority 2010, published 2013).

Molecules are shown by their SMILES. Values after ≈ are worked out from the molar mass of the structure shown. “Also recorded” adds a separate entry of the source.

Assay [1] deals with M. tuberculosis ribosome, tmRNA and SmpB (trans-translation) (Mycobacterium tuberculosis, UniProt P9WH43). It counts as biochemical.
The target of assay [2] is T1, Endonuclease IV (Rv0670) (Mycobacterium tuberculosis, UniProt P9WQ13). Kind of assay: Endonuclease IV (Rv0670) activity on oligonucleotides with AP, U or H lesions. It counts as biochemical, M. tuberculosis. The settings on record: oligos with AP, U or H lesion; POA 2, 4, 8, 16, 25 and 34 mM; INH and PZA 25 mM.
In assay [3] the target is ribosome from M. smegmatis (trans-translation) (Mycolicibacterium smegmatis, UniProt A0QYY6). In kind it is biochemical.
Assay [4] deals with M. tuberculosis cell lysates. In kind it is binding.
The target of assay [5] is M. tuberculosis ribosome (canonical translation) (Mycobacterium tuberculosis, UniProt P9WH43). In kind it is biochemical.
For assay [6], the target named is T1, Endonuclease IV (Rv0670). It counts as biochemical, M. tuberculosis.
For assay [7], the target named is M. tuberculosis H37Rv RpsA (WT) (Mycobacterium tuberculosis, UniProt P9WH43). Kind of assay: biochemical. In kind it is binding.
A further assay concerns the target T2, M. smegmatis RpsA (Mycolicibacterium smegmatis, UniProt A0QYY6).
T2 construct: made in house
T2 sequence (A0QYY6 1-479): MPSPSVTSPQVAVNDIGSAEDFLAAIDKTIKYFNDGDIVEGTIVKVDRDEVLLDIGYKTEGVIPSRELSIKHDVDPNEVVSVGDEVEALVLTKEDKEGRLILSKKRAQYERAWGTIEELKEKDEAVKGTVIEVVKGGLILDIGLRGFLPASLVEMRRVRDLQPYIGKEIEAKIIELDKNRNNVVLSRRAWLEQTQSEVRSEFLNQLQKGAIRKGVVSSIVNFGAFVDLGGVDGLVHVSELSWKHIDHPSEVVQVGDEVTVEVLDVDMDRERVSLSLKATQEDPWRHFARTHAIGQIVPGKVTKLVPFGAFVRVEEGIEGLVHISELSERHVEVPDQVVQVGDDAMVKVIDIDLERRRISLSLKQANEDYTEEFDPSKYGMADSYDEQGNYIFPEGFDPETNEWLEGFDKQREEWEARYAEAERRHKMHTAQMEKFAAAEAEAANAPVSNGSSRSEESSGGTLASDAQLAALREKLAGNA
In kind it is binding. The settings on record: 10 μM RpsA titrated with 100 μM POA.

Assay [8] concerns the target T3, wild type M. tuberculosis RpsA binding to tmRNA (Mycobacterium tuberculosis, UniProt P9WH43).
T3 sequence (P9WH43 1-481): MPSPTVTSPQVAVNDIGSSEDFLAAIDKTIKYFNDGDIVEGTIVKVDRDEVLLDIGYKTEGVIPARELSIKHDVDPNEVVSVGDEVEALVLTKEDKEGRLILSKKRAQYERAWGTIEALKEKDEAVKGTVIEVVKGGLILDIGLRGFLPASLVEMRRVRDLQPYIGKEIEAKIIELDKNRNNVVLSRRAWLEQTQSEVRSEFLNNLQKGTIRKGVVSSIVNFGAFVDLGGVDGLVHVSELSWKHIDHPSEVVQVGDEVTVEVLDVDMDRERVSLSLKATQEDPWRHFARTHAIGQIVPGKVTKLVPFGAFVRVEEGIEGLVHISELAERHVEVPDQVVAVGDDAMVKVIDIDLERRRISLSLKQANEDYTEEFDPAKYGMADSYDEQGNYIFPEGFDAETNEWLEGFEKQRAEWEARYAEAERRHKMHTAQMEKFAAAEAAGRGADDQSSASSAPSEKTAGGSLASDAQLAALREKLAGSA
Particulars: for effect on tmRNA binding to wild type RpsA: FIG. 5A, POA Lanes 2-7, PZA (200 g/ml), INH (1 g/ml).

A further assay concerns M. tuberculosis. Kind of assay: MIC of POA as stated in the text. In kind it is cell-based. The settings on record: Mycobacterium tuberculosis, read-out: MIC concentration.
Assay [9] addresses ribosome from E. coli (trans-translation) (Escherichia coli, UniProt P0AG67). In kind it is biochemical.
Assay [10] deals with Mtb clinical isolate DHM444 / H37Rv. Kind of assay: microbe, parasite or virus in culture. It counts as cell-based, M. tuberculosis. Particulars: Mycobacterium tuberculosis, PZA, sensitive control strain H37Rv.

T1 sequence (P9WQ13 whole entry): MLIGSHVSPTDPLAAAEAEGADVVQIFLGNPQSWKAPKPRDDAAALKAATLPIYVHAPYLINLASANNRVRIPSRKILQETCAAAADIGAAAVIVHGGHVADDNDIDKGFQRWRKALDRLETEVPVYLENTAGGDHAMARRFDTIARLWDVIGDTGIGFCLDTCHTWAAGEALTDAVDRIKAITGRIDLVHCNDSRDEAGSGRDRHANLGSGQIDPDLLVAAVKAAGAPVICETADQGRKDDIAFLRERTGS

Regarding `O=C(O)c1cccnc1` [nicotinic acid], the inhibition of trans-translation entry in assay [1] is on record as “did not inhibit”.
On to `O=C(O)c1cnccn1` [POA, 2-pyrazinecarboxylic acid], for which, on Endonuclease IV (Rv0670) [2], the “inhibition of Rv0670 endonuclease activity” value is given as “inhibited Rv0670 activity specifically in a dose dependent manner; also recorded: specific inhibition”. Moreover, the inhibition of trans-translation result in assay [3] was “nor did it inhibit; also recorded: did not inhibit”. Also, the “proteins bound to POA identified by Mass Spectrometry” value in assay [4] (Examples 8-16, columns with 5-hydroxyl- and 6-hydroxyl-2-pyrazinecarboxylic acid) was determined as 9 proteins. The “proteins that bound to POA” value in assay [4] (M. tuberculosis cell lysates, column with 5-hydroxyl-2-pyrazinecarboxylic acid, FIG. 1) is listed as “several proteins”. In addition, the “major POA binding protein” value in assay [4] (POA-linked column, mass spectrometry) is reported as “RpsA”. For the same compound, in assay [5], the “effect on conventional protein synthesis (canonical translation)” value was “no effect; also recorded: did not inhibit” and the “effect on translation of the normal DHFR gene” value is listed as “did not affect”. In addition, the “inhibition of Rv0670 (Endo IV/V) activity” value against Endonuclease IV (Rv0670) [6] is “inhibited the activity of Rv0670 (Endo IV/V) completely”. Besides, on Endonuclease IV (Rv0670) [6] (dilution or dialysis), the “reversibility of Endo IV/V inhibition” value was “irreversibly”. The “binding to wild type RpsA (ITC)” value in assay [7] is “bound; also recorded: specifically bind”. Further, the “ΔS (ITC)” value in [7] (pH 7.4) was 27.6 cal·mol^−1·K^−1. The Kd in assay [7] (read-out: K (binding constant, ITC)) is 133 nM. For the same compound, the “binding to M. smegmatis RpsA (ITC)” value at M. smegmatis RpsA was “only weakly; also recorded: only very weakly”. For the same compound, the “effect on tmRNA binding to wild type RpsA” value (“effect on tmRNA binding” for short) in assay [8] is given as “Concentration-dependent inhibition”. The “inhibition of wild type Mtb RpsA binding to tmRNA” value in [8] (POA at its MIC concentration of 50 μg/ml) was “inhibited”. Besides, the MIC in the assay on M. tuberculosis is 50 µg/mL. Moreover, in [9], the inhibition of trans-translation result is “nor did it inhibit; also recorded: did not inhibit”. Moreover, in [1], the “concentration inhibiting trans-translation of DHFR with the rare codon cluster” value is no less than 25 µg/mL, the “inhibition of trans-translation of the DHFR product” value is reported as “inhibited” and the “trans-translation product DHFR” value was “still present”. Also, in assay [1] (n=5), the “inhibition of trans-translation, densitometry of band intensities” value is listed as “Concentration-dependent inhibition”.
Turning to `NC(=O)c1cnccn1` [PZA, Pyrazinamide], the “inhibition of Rv0670 endonuclease activity” value at Endonuclease IV (Rv0670) [2] was “did not inhibit”. In addition, on Endonuclease IV (Rv0670) [6], the “inhibition of Rv0670 (Endo IV/V) activity” value was “no inhibition and not”. The compound further came in with an MIC in [10] of 100 µg/mL (≈ 812 µM). Moreover, the “binding to wild type RpsA (ITC)” value in assay [7] is on record as “did not bind”. For the same compound, the “effect on tmRNA binding” value in assay [8] is listed as “no effect; also recorded: not affected”.
For `NNC(=O)c1ccncc1` [INH, isoniazid], the “inhibition of Rv0670 endonuclease activity” value on Endonuclease IV (Rv0670) [2] is listed as “did not inhibit”. Further, the “inhibition of Rv0670 (Endo IV/V) activity” value on Endonuclease IV (Rv0670) [6] was “no inhibition and not”. Also, in [8], the “effect on tmRNA binding” value is “no effect; also recorded: not affected”.
